Values of other authors as cited in patent US20130338095A1, “Chemosensory Receptor Ligand-Based Therapies” (ELCELYX THERAPEUTICS, INC., priority 2010, published 2013).

Target: T1, sweet receptor (Homo sapiens, UniProt Q7RTX0+Q8TE23)
T1 sequence (Q8TE23 20-839): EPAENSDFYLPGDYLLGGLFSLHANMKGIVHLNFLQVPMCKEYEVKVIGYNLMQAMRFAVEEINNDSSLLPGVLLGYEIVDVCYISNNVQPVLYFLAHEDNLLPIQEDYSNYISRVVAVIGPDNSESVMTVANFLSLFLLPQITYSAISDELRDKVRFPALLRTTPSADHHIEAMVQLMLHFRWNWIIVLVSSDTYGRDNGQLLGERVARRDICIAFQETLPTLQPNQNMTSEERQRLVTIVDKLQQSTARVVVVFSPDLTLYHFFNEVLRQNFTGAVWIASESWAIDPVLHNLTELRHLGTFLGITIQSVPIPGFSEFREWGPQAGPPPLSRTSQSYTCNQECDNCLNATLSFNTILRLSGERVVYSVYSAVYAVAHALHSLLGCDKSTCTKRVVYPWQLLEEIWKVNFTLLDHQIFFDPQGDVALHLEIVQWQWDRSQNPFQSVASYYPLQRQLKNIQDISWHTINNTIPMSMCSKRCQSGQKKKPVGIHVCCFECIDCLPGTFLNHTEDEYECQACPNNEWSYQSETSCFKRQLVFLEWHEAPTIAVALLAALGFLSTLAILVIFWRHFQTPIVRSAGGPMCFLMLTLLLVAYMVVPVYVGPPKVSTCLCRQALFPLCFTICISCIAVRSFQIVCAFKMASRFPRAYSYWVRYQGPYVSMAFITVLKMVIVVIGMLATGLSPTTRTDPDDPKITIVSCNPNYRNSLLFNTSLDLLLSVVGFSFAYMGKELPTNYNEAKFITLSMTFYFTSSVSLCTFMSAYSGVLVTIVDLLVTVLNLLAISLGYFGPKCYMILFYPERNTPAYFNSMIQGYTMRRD
T1 sequence (Q7RTX0 21-852): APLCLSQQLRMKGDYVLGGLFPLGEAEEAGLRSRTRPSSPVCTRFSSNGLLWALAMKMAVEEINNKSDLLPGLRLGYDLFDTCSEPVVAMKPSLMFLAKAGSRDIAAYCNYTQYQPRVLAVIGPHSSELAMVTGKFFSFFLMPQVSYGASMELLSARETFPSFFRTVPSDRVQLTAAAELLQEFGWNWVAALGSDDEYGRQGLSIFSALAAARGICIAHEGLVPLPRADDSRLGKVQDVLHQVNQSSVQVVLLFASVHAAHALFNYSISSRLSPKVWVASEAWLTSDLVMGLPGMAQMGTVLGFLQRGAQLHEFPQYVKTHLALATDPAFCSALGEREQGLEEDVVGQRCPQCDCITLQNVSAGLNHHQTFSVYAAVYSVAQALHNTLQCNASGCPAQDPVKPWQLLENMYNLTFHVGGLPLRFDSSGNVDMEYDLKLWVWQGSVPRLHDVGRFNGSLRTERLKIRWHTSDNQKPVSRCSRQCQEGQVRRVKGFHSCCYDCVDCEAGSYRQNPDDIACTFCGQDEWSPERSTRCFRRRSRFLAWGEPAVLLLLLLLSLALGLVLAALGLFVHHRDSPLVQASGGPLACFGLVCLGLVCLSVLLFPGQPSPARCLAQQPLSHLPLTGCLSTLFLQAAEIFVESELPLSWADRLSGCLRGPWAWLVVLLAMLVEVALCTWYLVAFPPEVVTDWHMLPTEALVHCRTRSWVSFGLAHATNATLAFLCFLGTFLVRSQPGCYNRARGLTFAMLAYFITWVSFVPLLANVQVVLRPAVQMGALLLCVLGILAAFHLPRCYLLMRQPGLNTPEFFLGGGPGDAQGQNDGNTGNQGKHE
Details: relative sweetness on a weight comparison basis to sucrose (=1.0)

| Sweetness/potency | Compound |
| --- | --- |
| 5 | CC1(C)C[C@H]2C3=CC[C@@H]4[C@@]5(C)CC[C@H](O[C@@H]6O[C@H](CO[C@@H]7OC[C@H](O)[C@H](O)[C@H]7O[C@@H]7OC[C@@H](O)[C@H](O)[C@H]7O)[C@@H](O)[C@H](O)[C@H]6O)C(C)(C)[C@@H]5CC[C@@]4(C)[C@]3(C)C[C@@H](O)[C@@]23C[C@@H]1OC3=O [Albiziasaponin A] |
| 3,000 | Monellin |
| 80 | CC(=O)O[C@H]1C(=O)c2c(O)cc(O)cc2O[C@@H]1c1ccc(O)c(O)c1 [(2R,3R)-Dihydroquercetin 3-O-acetate] |
| 92 | CC1(C(=O)O)C=C2C3CCC4C5(CO)CCC(OC6OC(C(=O)O)C(O)C(O)C6OC6OC(C(=O)O)C(O)C(O)C6O)C(C)(C)C5CCC4(C)C3(C)CCC2(C)CC1 (centres unmarked) [Periandrin III] |
| 85 | Periandrin IV |
| 600 | Polypodoside A |
| 150 | Rebaudioside B |
| 75 | CC1=CC[C@@H]([C@@H](C)[C@H]2CC[C@@]3(C)[C@@H]4CC[C@H]5[C@](C)(C(=O)O)[C@@H](O[C@@H]6O[C@H](CO)[C@@H](O)[C@H](O)[C@H]6O[C@@H]6O[C@H](C(=O)O)[C@@H](O)[C@H](O)[C@H]6O)CC[C@@]56C[C@@]46CC[C@]23C)OC1=O [Abrusoside D] |
| 100 | COC(=O)[C@H]1O[C@@H](O[C@H]2[C@H](O[C@H]3CC[C@]45C[C@]46CC[C@]4(C)[C@@H]([C@H](C)[C@@H]7CC=C(C)C(=O)O7)CC[C@@]4(C)[C@@H]6CC[C@H]5[C@]3(C)C(=O)O)O[C@H](CO)[C@@H](O)[C@@H]2O)[C@H](O)[C@@H](O)[C@@H]1O [Abrusoside B] |
| 55 | C/C(=C\CO)CCC1=C(C=O)CC(OC2OCC(O)C(O)C2O)C2C(C)(CO)CCCC12C (centres unmarked) [Gaudichaudioside A] |

| Compound | Sweetness/potency |
| --- | --- |
| Oc1cc2c(cc1O)[C@@H]1c3ccc(O)c(O)c3OC[C@]1(O)C2 [Hematoxylin] | 120 |

Tested on: not given
Details: bitter phytonutrients in common plant foods

| Compound | Taste quality |
| --- | --- |
| COc1ccc(-c2cc(=O)c3c(OC)c(OC)c(OC)cc3o2)cc1OC [Sinensetin] | Bitter |
| O=S(=O)(O)ON=C(Cc1c[nH]c2ccccc12)S[C@@H]1O[C@H](CO)[C@@H](O)[C@H](O)[C@H]1O [Glucobrassicin] | Bitter |
| C[C@@H]1O[C@@H](O[C@H]2[C@H](Oc3cc(O)c4c(c3)O[C@H](c3ccc(O)cc3)CC4=O)O[C@H](CO)[C@@H](O)[C@@H]2O)[C@H](O)[C@H](O)[C@H]1O [Naringin] | Bitter |
| O=c1c(-c2ccc(O)cc2)coc2cc(O)cc(O)c12 [Genistein] | Bitter or astringent |
| O=c1c(-c2ccc(O)cc2)coc2cc(O)ccc12 [daidzein] | Bitter or astringent |
| O=c1c(-c2ccc(O)cc2)coc2cc(O[C@@H]3O[C@H](CO)[C@@H](O)[C@H](O)[C@H]3O)cc(O)c12 [Genistin] | Astringent |
| CC(=O)O[C@H]1CC(=O)OC(C)(C)[C@@H]2CC(=O)[C@]3(C)[C@H](CC[C@@]4(C)[C@H](c5ccoc5)OC(=O)[C@H]5O[C@]543)[C@@]12C [Nomilin] | Bitter |
| COc1ccc(-c2cc(=O)c3c(OC)c(OC)c(OC)c(OC)c3o2)cc1 [Tangeretin] | Bitter |
| C=C[C@H](O)CC(=NOS(=O)(=O)O)S[C@@H]1O[C@H](CO)[C@@H](O)[C@H](O)[C@H]1O [Progoitrin] | Bitter |
| C=CCC(=NOS(=O)(=O)O)S[C@@H]1O[C@H](CO)[C@@H](O)[C@H](O)[C@H]1O (stereo in doubt) [Sinigrin] | Bitter |
| C[S+]([O-])CCCCN=C=S (centres unmarked) [4-Methylsulfinyl butyl isothiocyanate] | Acrid mustard oils |
| CC1(C)O[C@H]2CC(=O)OC[C@]23[C@H]2CC[C@@](C)([C@@H](O[C@@H]4O[C@H](CO)[C@@H](O)[C@H](O)[C@H]4O)c4ccoc4)[C@@]4(O[C@@H]4C(=O)O)[C@]2(C)C(=O)C[C@@H]13 [Limonin glucoside] | Tasteless |
